The values below come from PMC5218480 (PLoS ONE, 2017).

The subject of this assay is MV-4-11 cells. The assay can be described thus: Gene expression microarray analysis (Affymetrix PrimeView) and GSEA. The conditions noted are these: MV-4-11 cells, 48 hours. Also noted: RFU PODN (11730768_x_at) / Fold change /veh PODN (11730768_x_at) / RFU LINC00158 (11744669_a_at) / Fold change /veh LINC00158 (11744669_a_at) / RFU DUSP10 (11751237_a_at) / Fold change /veh DUSP10 (11751237_a_at) / RFU ID3 (11757404_x_at) / Fold change /veh ID3 (11757404_x_at) / RFU PLEKHG5 (11737974_s_at) / Fold change /veh PLEKHG5 (11737974_s_at) / RFU LRRC4B (11730491_at) / Fold change /veh LRRC4B (11730491_at) / RFU GIMAP4 (11747438_a_at) / Fold change /veh GIMAP4 (11747438_a_at) / RFU KRT8 (11758183_x_at) / Fold change /veh KRT8 (11758183_x_at) / RFU CNN1 (11734310_a_at) / Fold change /veh CNN1 (11734310_a_at) / RFU VPS37D (11726825_at) / Fold change /veh VPS37D (11726825_at) / RFU C10orf10 (11716522_x_at) / Fold change /veh C10orf10 (11716522_x_at) / RFU KIR2DL2 /// KIR2DL4 /// KIR2DL5A /// KIR2DL5B /// KIR2DS1 /// KIR2DS2 /// KIR2DS3 /// KIR2DS4 /// KIR3DL3 /// KIR3DL3 /// KIR3DS1 (11738374_at) / Fold change /veh KIR2DL2 /// KIR2DL4 /// KIR2DL5A /// KIR2DL5B /// KIR2DS1 /// KIR2DS2 /// KIR2DS3 /// KIR2DS4 /// KIR3DL3 /// KIR3DL3 /// KIR3DS1 (11738374_at) / RFU C1QL1 (11718748_at) / Fold change /veh C1QL1 (11718748_at) / RFU TMPRSS4 (11747572_a_at) / Fold change /veh TMPRSS4 (11747572_a_at) / RFU HAMP (11756126_x_at) / Fold change /veh HAMP (11756126_x_at) / RFU RNFT2 (11725882_a_at) / Fold change /veh RNFT2 (11725882_a_at) / RFU NR4A2 (11747474_a_at) / Fold change /veh NR4A2 (11747474_a_at) / RFU ABCC12 (11746883_a_at) / Fold change /veh ABCC12 (11746883_a_at) / RFU TMEM136 (11760407_x_at) / Fold change /veh TMEM136 (11760407_x_at) / RFU CLDN22 /// WWC2 (11732394_at) / Fold change /veh CLDN22 /// WWC2 (11732394_at) / RFU HLA-DPB1 (11760878_x_at) / Fold change /veh HLA-DPB1 (11760878_x_at) / RFU SPINT1 (11716480_a_at) / Fold change /veh SPINT1 (11716480_a_at) / RFU GAP43 (11754022_s_at) / Fold change /veh GAP43 (11754022_s_at) / RFU A4GNT (11735810_at) / Fold change /veh A4GNT (11735810_at) / RFU PRB3 (11715151_x_at) / Fold change /veh PRB3 (11715151_x_at) / RFU TUBB4B (11761932_at) / Fold change /veh TUBB4B (11761932_at) / RFU CAPN14 (11732068_a_at) / Fold change /veh CAPN14 (11732068_a_at) / RFU TMCC2 (11721928_a_at) / Fold change /veh TMCC2 (11721928_a_at) / RFU IRGQ (11745062_a_at) / Fold change /veh IRGQ (11745062_a_at) / RFU FAM174B (11720279_a_at) / Fold change /veh FAM174B (11720279_a_at) / RFU TMPRSS4 (11748680_a_at) / Fold change /veh TMPRSS4 (11748680_a_at) / RFU FAM212B (11763350_a_at) / Fold change /veh FAM212B (11763350_a_at) / RFU PLEKHG5 (11743358_a_at) / Fold change /veh PLEKHG5 (11743358_a_at) / RFU ZSCAN30 (11745921_a_at) / Fold change /veh ZSCAN30 (11745921_a_at) / RFU CMKLR1 (11741424_a_at) / Fold change /veh CMKLR1 (11741424_a_at) / RFU LOC101060620 /// MAPK8IP1 (11723275_at) / Fold change /veh LOC101060620 /// MAPK8IP1 (11723275_at) / RFU SPTSSB (11747773_x_at) / Fold change /veh SPTSSB (11747773_x_at) / RFU PRSS12 (11739890_at) / Fold change /veh PRSS12 (11739890_at) / RFU BIN1 (11741810_x_at) / Fold change /veh BIN1 (11741810_x_at) / RFU WNT11 (11732464_a_at) / Fold change /veh WNT11 (11732464_a_at) / RFU C10orf10 (11716521_a_at) / Fold change /veh C10orf10 (11716521_a_at) / RFU C5orf56 (11738089_at) / Fold change /veh C5orf56 (11738089_at) / RFU CYB561 (11721691_x_at) / Fold change /veh CYB561 (11721691_x_at) / RFU ANKRD19P (11752326_a_at) / Fold change /veh ANKRD19P (11752326_a_at) / RFU OR2T12 /// OR2T33 /// OR2T8 (11738714_s_at) / Fold change /veh OR2T12 /// OR2T33 /// OR2T8 (11738714_s_at) / RFU VCAN (11748164_a_at) / Fold change /veh VCAN (11748164_a_at) / RFU JSRP1 (11732532_at) / Fold change /veh JSRP1 (11732532_at) / RFU KRTAP10-11 (11738290_x_at) / Fold change /veh KRTAP10-11 (11738290_x_at) / RFU MYO3A (11730013_a_at) / Fold change /veh MYO3A (11730013_a_at) / RFU EBF3 (11725865_a_at) / Fold change /veh EBF3 (11725865_a_at) / RFU CAMK2N1 (11719241_x_at) / Fold change /veh CAMK2N1 (11719241_x_at) / RFU C5orf56 (11738088_a_at) / Fold change /veh C5orf56 (11738088_a_at) / RFU OLFML3 (11715873_a_at) / Fold change /veh OLFML3 (11715873_a_at) / RFU LOC100653217 /// NTM (11731650_a_at) / Fold change /veh LOC100653217 /// NTM (11731650_a_at) / RFU MAPK11 (11762145_a_at) / Fold change /veh MAPK11 (11762145_a_at) / RFU FIZ1 (11724087_x_at) / Fold change /veh FIZ1 (11724087_x_at) / RFU OASL (11726364_x_at) / Fold change /veh OASL (11726364_x_at) / RFU SOX15 (11748057_x_at) / Fold change /veh SOX15 (11748057_x_at) / RFU CD79A (11719716_a_at) / Fold change /veh CD79A (11719716_a_at) / RFU HIST1H1D (11736915_at) / Fold change /veh HIST1H1D (11736915_at) / RFU CASKIN2 (11723855_a_at) / Fold change /veh CASKIN2 (11723855_a_at) / RFU LOC730098 (11760151_x_at) / Fold change /veh LOC730098 (11760151_x_at) / RFU OR4N2 (11742367_at) / Fold change /veh OR4N2 (11742367_at) / RFU PRRT2 (11749266_a_at) / Fold change /veh PRRT2 (11749266_a_at) / RFU SNX32 (11753110_a_at) / Fold change /veh SNX32 (11753110_a_at) / RFU CDHR5 (11726645_a_at) / Fold change /veh CDHR5 (11726645_a_at) / RFU RCAN1 (11760418_a_at) / Fold change /veh RCAN1 (11760418_a_at) / RFU FAM167A (11723789_a_at) / Fold change /veh FAM167A (11723789_a_at) / RFU FAM26E (11764081_at) / Fold change /veh FAM26E (11764081_at) / RFU ISYNA1 (11749810_s_at) / Fold change /veh ISYNA1 (11749810_s_at) / RFU ACY1 (11761880_at) / Fold change /veh ACY1 (11761880_at) / RFU 11764098_at / Fold change /veh 11764098_at / RFU SAMD14 (11745864_x_at) / Fold change /veh SAMD14 (11745864_x_at) / RFU NPB (11741838_a_at) / Fold change /veh NPB (11741838_a_at) / RFU TMPRSS6 (11731388_a_at) / Fold change /veh TMPRSS6 (11731388_a_at) / RFU KRTAP10-2 (11738614_at) / Fold change /veh KRTAP10-2 (11738614_at) / RFU ARHGAP8 /// PRR5-ARHGAP8 (11727945_x_at) / Fold change /veh ARHGAP8 /// PRR5-ARHGAP8 (11727945_x_at) / RFU KRTAP5-7 /// NADSYN1 (11734609_at) / Fold change /veh KRTAP5-7 /// NADSYN1 (11734609_at) / RFU RASL12 (11751679_a_at) / Fold change /veh RASL12 (11751679_a_at) / RFU CDKN2B (11736163_a_at) / Fold change /veh CDKN2B (11736163_a_at) / RFU PRF1 (11729649_at) / Fold change /veh PRF1 (11729649_at) / RFU, ZNF638 /// ZNF638-IT1 / Fold change vs veh, ZNF638 /// ZNF638-IT1 / RFU, PANK3 / Fold change vs veh, PANK3 / RFU, SH3YL1 / Fold change vs veh, SH3YL1 / RFU, ZEB2 / Fold change vs veh, ZEB2 / RFU, NRIP1 / Fold change vs veh, NRIP1 / RFU, PTTG1IP / Fold change vs veh, PTTG1IP / RFU, CAPN2 / Fold change vs veh, CAPN2 / RFU, MED14 / Fold change vs veh, MED14 / RFU, SNORA58 / Fold change vs veh, SNORA58 / RFU, C1orf63 / Fold change vs veh, C1orf63 / RFU, LRRFIP1 / Fold change vs veh, LRRFIP1 / RFU, NDUFAF7 / Fold change vs veh, NDUFAF7 / RFU, SLC12A2 / Fold change vs veh, SLC12A2 / RFU, IBTK / Fold change vs veh, IBTK / RFU, ESF1 / Fold change vs veh, ESF1 / Fold change vs veh, TMEM50B / RFU, TAOK1 / Fold change vs veh, TAOK1 / RFU, ACBD3 / Fold change vs veh, ACBD3 / RFU, TMA16 / Fold change vs veh, TMA16 / RFU, RWDD3 / Fold change vs veh, RWDD3 / RFU, BCAT1 / Fold change vs veh, BCAT1 / RFU, EDEM3 / Fold change vs veh, EDEM3 / RFU, TMEM33 / Fold change vs veh, TMEM33 / RFU, WDR75 / Fold change vs veh, WDR75 / RFU, AHCTF1 / Fold change vs veh, AHCTF1 / RFU, TFRC / Fold change vs veh, TFRC / RFU, ZDHHC17 / Fold change vs veh, ZDHHC17 / RFU, NOM1 / Fold change vs veh, NOM1 / RFU, ARL8B / Fold change vs veh, ARL8B / RFU, ZBTB11 / Fold change vs veh, ZBTB11 / RFU, TAMM41 / Fold change vs veh, TAMM41 / RFU, KIAA1704 /// LOC100996395 / Fold change vs veh, KIAA1704 /// LOC100996395 / RFU, ING1 / Fold change vs veh, ING1 / RFU, TRMT61B / Fold change vs veh, TRMT61B / RFU, FUBP3 / Fold change vs veh, FUBP3 / RFU, TP53 / Fold change vs veh, TP53 / RFU, TNKS2 / Fold change vs veh, TNKS2 / RFU, ZFP14 / Fold change vs veh, ZFP14 / RFU, ACTR2 / Fold change vs veh, ACTR2 / RFU, PPP3R1 / Fold change vs veh, PPP3R1 / RFU, PIK3R1 / Fold change vs veh, PIK3R1 / RFU, HNRNPA1 / Fold change vs veh, HNRNPA1 / RFU, RNF170 / Fold change vs veh, RNF170 / RFU, ZNF28 / Fold change vs veh, ZNF28 / RFU, RNGTT / Fold change vs veh, RNGTT / RFU, OGT / Fold change vs veh, OGT / RFU, BRD1 / Fold change vs veh, BRD1 / RFU, MARS / Fold change vs veh, MARS / RFU, ZNF655 / Fold change vs veh, ZNF655 / RFU, FAHD1 / Fold change vs veh, FAHD1 / RFU, BDP1 / Fold change vs veh, BDP1 / RFU, LRRCC1 / Fold change vs veh, LRRCC1 / RFU, ARID1A / Fold change vs veh, ARID1A / RFU, ZNF146 / Fold change vs veh, ZNF146 / RFU, ZNF330 / Fold change vs veh, ZNF330 / RFU, GPN3 / Fold change vs veh, GPN3 / RFU, C9orf123 / Fold change vs veh, C9orf123 / RFU, N4BP2L2 / Fold change vs veh, N4BP2L2 / RFU, ARFIP1 / Fold change vs veh, ARFIP1 / RFU, FAM179B / Fold change vs veh, FAM179B / RFU, BCL10 / Fold change vs veh, BCL10 / RFU, UHRF1BP1L / Fold change vs veh, UHRF1BP1L / RFU, BET1 / Fold change vs veh, BET1 / RFU, CNOT2 / Fold change vs veh, CNOT2 / RFU, ZNF268 / Fold change vs veh, ZNF268 / Fold change vs veh, ZNF507 / RFU, DGCR2 / Fold change vs veh, DGCR2 / RFU, WDSUB1 / Fold change vs veh, WDSUB1 / Fold change vs veh, HSP90B1 /// MIR3652 / RFU, ADSS / Fold change vs veh, ADSS / RFU, GK / Fold change vs veh, GK / RFU, ZNF148 / Fold change vs veh, ZNF148 / RFU, TAF9 / Fold change vs veh, TAF9 / RFU, SLC1A5 / Fold change vs veh, SLC1A5 / RFU, SLMO2 / Fold change vs veh, SLMO2 / RFU, ABCC4 / Fold change vs veh, ABCC4 / RFU, LOC101060439 /// RAP1B / Fold change vs veh, LOC101060439 /// RAP1B / RFU, RFX7 / Fold change vs veh, RFX7 / RFU, GTPBP10 / Fold change vs veh, GTPBP10 / RFU, CNEP1R1 / Fold change vs veh, CNEP1R1 / RFU, BIVM-ERCC5 /// ERCC5 / Fold change vs veh, BIVM-ERCC5 /// ERCC5 / RFU, ILF3 / Fold change vs veh, ILF3 / RFU 11762660_at / Fold change /veh 11762660_at / RFU VCAN (11757783_s_at) / Fold change /veh VCAN (11757783_s_at) / RFU DDX43 (11728927_at) / Fold change /veh DDX43 (11728927_at) / RFU KRT8 (11758188_x_at) / Fold change /veh KRT8 (11758188_x_at) / RFU NKD1 (11759106_at) / Fold change /veh NKD1 (11759106_at) / RFU SRD5A1 (11742802_a_at) / Fold change /veh SRD5A1 (11742802_a_at) / RFU TPSAB1 /// TPSB2 (11721975_s_at) / Fold change /veh TPSAB1 /// TPSB2 (11721975_s_at) / RFU GSTM3 (11746129_a_at) / Fold change /veh GSTM3 (11746129_a_at) / RFU IL23R (11737362_x_at) / Fold change /veh IL23R (11737362_x_at) / RFU TMEM51 (11727254_a_at) / Fold change /veh TMEM51 (11727254_a_at) / RFU PIWIL2 (11732686_x_at) / Fold change /veh PIWIL2 (11732686_x_at) / RFU ORM1 (11744905_x_at) / Fold change /veh ORM1 (11744905_x_at) / RFU CCDC152 (11743942_at) / Fold change /veh CCDC152 (11743942_at) / RFU ECM1 (11717891_a_at) / Fold change /veh ECM1 (11717891_a_at) / RFU IL23R (11748794_a_at) / Fold change /veh IL23R (11748794_a_at) / RFU TNFAIP8L3 (11732012_x_at) / Fold change /veh TNFAIP8L3 (11732012_x_at) / RFU MBOAT4 (11741988_at) / Fold change /veh MBOAT4 (11741988_at) / RFU 11764193_at / Fold change /veh 11764193_at / RFU TMEM53 (11763286_at) / Fold change /veh TMEM53 (11763286_at) / RFU MAGEB2 (11727129_at) / Fold change /veh MAGEB2 (11727129_at) / RFU TMEM200A (11744735_a_at) / Fold change /veh TMEM200A (11744735_a_at) / RFU CCDC152 (11751479_a_at) / Fold change /veh CCDC152 (11751479_a_at) / RFU FAM211A (11726209_a_at) / Fold change /veh FAM211A (11726209_a_at) / RFU RGS16 (11746705_a_at) / Fold change /veh RGS16 (11746705_a_at) / RFU VCAN (11755009_s_at) / Fold change /veh VCAN (11755009_s_at) / RFU RHOB (11743442_s_at) / Fold change /veh RHOB (11743442_s_at) / RFU RGS16 (11720943_a_at) / Fold change /veh RGS16 (11720943_a_at) / RFU RGS16 (11720944_at) / Fold change /veh RGS16 (11720944_at) / RFU, VPS4B / Fold change vs veh, VPS4B / RFU, CREB1 / Fold change vs veh, CREB1 / RFU, DNAJC13 / Fold change vs veh, DNAJC13 / RFU, GNAQ / Fold change vs veh, GNAQ / RFU, CDK5R1 / Fold change vs veh, CDK5R1 / RFU, ZRANB3 / Fold change vs veh, ZRANB3 / RFU, CUL4A / Fold change vs veh, CUL4A / RFU, CCNY / Fold change vs veh, CCNY / RFU, UFL1 / Fold change vs veh, UFL1 / RFU, COG3 / Fold change vs veh, COG3 / RFU, DIAPH2 / Fold change vs veh, DIAPH2 / RFU, SKA2 / Fold change vs veh, SKA2 / RFU, AFF3 / Fold change vs veh, AFF3 / RFU, LMF1 / Fold change vs veh, LMF1 / RFU, IPO11 / Fold change vs veh, IPO11 / RFU, DFFB / Fold change vs veh, DFFB / RFU, FOXP1 / Fold change vs veh, FOXP1 / RFU, CARD8 / Fold change vs veh, CARD8 / RFU, STRN3 / Fold change vs veh, STRN3 / RFU, ADK / Fold change vs veh, ADK / RFU, RASSF2 / Fold change vs veh, RASSF2 / RFU, WIPF1 / Fold change vs veh, WIPF1 / RFU, LARP1B / Fold change vs veh, LARP1B / RFU, RASA1 / Fold change vs veh, RASA1 / RFU, RB1 / Fold change vs veh, RB1 / RFU, PPFIA1 / Fold change vs veh, PPFIA1 / RFU, MAT2A / Fold change vs veh, MAT2A / RFU, CCT5 / Fold change vs veh, CCT5 / RFU, WDR92 / Fold change vs veh, WDR92 / RFU, CUX1 / Fold change vs veh, CUX1 / RFU, TTC7A / Fold change vs veh, TTC7A / RFU, TMEM135 / Fold change vs veh, TMEM135 / RFU, DEPTOR / Fold change vs veh, DEPTOR / RFU, CPM / Fold change vs veh, CPM / RFU, DNAJB6 / Fold change vs veh, DNAJB6 / RFU, CACNA2D3 / Fold change vs veh, CACNA2D3 / RFU, DTX4 / Fold change vs veh, DTX4 / RFU, TFCP2 / Fold change vs veh, TFCP2 / RFU, GMCL1 /// GMCL1P1 / Fold change vs veh, GMCL1 /// GMCL1P1 / RFU, AEBP2 / Fold change vs veh, AEBP2 / RFU, SNHG1 /// SNORD22 /// SNORD25 /// SNORD26 /// SNORD27 /// SNORD28 /// SNORD29 /// SNORD31 / Fold change vs veh, SNHG1 /// SNORD22 /// SNORD25 /// SNORD26 /// SNORD27 /// SNORD28 /// SNORD29 /// SNORD31 / Fold change (Aza/veh), C12orf56 (ProbeSet 11735607_a_at) / Fold change (ACY-1035/veh), C12orf56 (ProbeSet 11735607_a_at) / Fold change (Aza/veh), FGFR1OP (ProbeSet 11751329_s_at) / Fold change (ACY-1035/veh), FGFR1OP (ProbeSet 11751329_s_at) / Fold change (Aza/veh), VPS36 (ProbeSet 11739960_a_at) / Fold change (ACY-1035/veh), VPS36 (ProbeSet 11739960_a_at) / RFU SYPL1 (11715823_x_at) / Fold change /veh SYPL1 (11715823_x_at) / RFU IGFBP7 (11715501_s_at) / Fold change /veh IGFBP7 (11715501_s_at) / RFU REEP3 (11722064_at) / Fold change /veh REEP3 (11722064_at) / RFU IGLL1 (11728026_x_at) / Fold change /veh IGLL1 (11728026_x_at): dose or concentration left out as unconfirmed. The class given is cell-based, human.

Regarding `Nc1ncn([C@@H]2O[C@H](CO)[C@@H](O)[C@H]2O)c(=O)n1` [azacitidine], the “Fold change /veh HIST1H1D (11736915_at)” value was 1.16.
